Results as given in US20160375033A1, “METHODS OF TREATMENT WITH TASELISIB” (Genentech, Inc., priority 2015, published 2016).

Test system: liver p110a
Experiment: Liver p110a at the membrane

Cc1nc(-c2cn3c(n2)-c2ccc(-c4cnn(C(C)(C)C(N)=O)c4)cc2OCC3)n(C(C)C)n1 [GDC-0032, 2-(4-(2-(1-isopropyl-3-methyl-1H-1,2,4-triazol-5-yl)-5,6-dihydrobenzo[f]imidazo[1,2-d][1,4]oxazepin-9-yl)-1H-pyrazol-1-yl)-2-methylpropanamide]
effect on liver p110a at the membrane: Neither taselisib or alpelisib affect liver p110a
